# Like-named read-outs stand apart in the source and are kept apart here. Marks after values point to notes of the source that are not given here. Peptide text beside a SMILES is read from it.
# Tests used:
# [1] = system: Candida krusei CGMCC 2.1857; assay: microbe, parasite or virus in culture; assay type: cell-based
# From the text: (§1) The antifungal activities were monitored in RPMI-1640 broth medium by a 2-fold microdilution assay according to the Clinical and Laboratory Standards Institute (CLSI) methods. The Candida albicans CGMCC 2.2086, Candida tropicalis CGMCC 2.1975, and Candida krusei CGMCC 2.1857 fungal strains were purchased from the China General Microbiological Culture Collection Center (CGMCC, Beijing, China). Clinically isolated Candida albicans CA2761 was provided by the 4th Affiliated Hospital of Harbin Medical University. Briefly, fungal strains were cultured on YPD agar plates (1% peptone, 0.5% yeast extract, 1% glucose and 2% agar) at 28 °C to prepare Candida suspensions with a turbidity of a 0.5 McFarland standard. A total of 50 μl inoculum cell suspension diluted in RPMI-1640 broth medium was added to an equal volume of peptide solution to achieve a final peptide concentrations ranging from 0.25 μM to 128 μM in a 96-well plate. Pure broth alone or with inoculum suspensions was used as the negative control or the positive control, respectively. The plate was incubated at 28 °C for 48 h. MIC was considered the lowest concentration at which no fungal growth was visually observed under experimental conditions. […] After 48 h incubation at 28 °C, MFC was defined as the lowest concentration of peptides that killed at least 99.9% of the initial inoculums. Experiments were performed in triplicate with three biological replicates.
# [2] = system: Candida tropicalis CGMCC 2.1975; assay: microbe, parasite or virus in culture; assay type: cell-based
# From the text: as §1
# [3] = system: Candida albicans CGMCC 2.2086; assay: microbe, parasite or virus in culture; assay type: cell-based
# From the text: as §1
# [4] = system: C. albicans CA276 (clinical isolate); assay: microbe, parasite or virus in culture; assay type: cell-based, Candida albicans
# From the text: as §1
# [5] = system: Bacillus subtilis CMCC 63501; assay type: cell-based; conditions: CMCC 63501, 18 h
# Experimental: (§2) The peptide antibacterial activity was determined against both gram-positive and gram-negative bacteria strains, including Escherichia coli ATCC 25922, Escherichia coli UB1005, Salmonella enterica serovar typhimurium C77-31, Staphylococcus aureus ATCC 29213, Staphylococcus aureus ATCC 25923, Bacillus subtilis CMCC 63501, and Staphylococcus epidermidis ATCC 12228. Clinically isolated Escherichia coli EC183 was provided by the 4th Affiliated Hospital of Harbin Medical University. MIC of the peptides was measured using a modified version of the National Committee for Clinical Laboratory Standards (NCCLS) broth microdilution method as described previously. The bacterial strains were inoculated and grown to mid-log phase in fresh Mueller-Hinton broth (MHB) at 37 °C. Bacterial inoculum suspensions were prepared at a final concentration of approximately 1 × 10^5 CFU/ml. Peptides were 2-fold serially diluted to make different concentrations, from 0.5 to 256 μM. Equal volumes of inoculum suspensions were then added to each well of a sterile 96-well plate with different concentrations of peptides, and the plate was incubated for 18 h at 37 °C. Broth with or without bacteria was employed as the positive control or the negative control, respectively. MIC was defined as the lowest concentration of peptides that prevented visible turbidity by visual inspection. […] After overnight incubation at 37 °C, MBC was defined as the lowest concentration of peptides that killed at least 99.9% of the initial inoculums. Experiments were performed in triplicate with three biological replicates.
# [6] = system: Staphylococcus aureus ATCC 25923; assay type: cell-based; conditions: ATCC 25923, 18 h
# Experimental: as §2
# [7] = system: Staphylococcus aureus ATCC 29213; assay type: cell-based; conditions: ATCC 29213, 18 h
# Experimental: as §2
# [8] = system: Clinically isolated Escherichia coli EC183; assay type: cell-based; conditions: Clinically isolated EC183, 18 h
# Experimental: as §2
# Escherichia coli UB1005 = assay type: cell-based; conditions: UB1005, 18 h
# Experimental: as §2
# [9] = system: Escherichia coli ATCC 25922; assay type: cell-based; conditions: ATCC 25922, 18 h
# Experimental: as §2
# [10] = system: Salmonella enterica serovar typhimurium C77-31; assay type: cell-based; conditions: three independent experiments; for MBC S. typhi C77-31: lowest concentration killing at least 99.9% of initial inoculum
# Experimental: as §2
# [11] = system: Staphylococcus epidermidis ATCC 12228; assay type: cell-based; conditions: ATCC 12228, 18 h
# Experimental: as §2
# [12] = Pichia kudriavzevii, CGMCC2, CLSI 2-fold microdilution, RPMI-1640, 28 °C for 48 h, visual, three independent experiments
# [13] = Pichia kudriavzevii, CGMCC2, lowest concentration killing at least 99.9% of initial inoculum, YPD agar, 48 h at 28 °C, three independent experiments
# [14] = Candida tropicalis, CGMCC2, CLSI 2-fold microdilution, RPMI-1640, 28 °C for 48 h, visual, three independent experiments
# [15] = Candida tropicalis, CGMCC2, lowest concentration killing at least 99.9% of initial inoculum, YPD agar, 48 h at 28 °C, three independent experiments
# [16] = Candida albicans, CGMCC2, CLSI 2-fold microdilution, RPMI-1640, 28 °C for 48 h, visual, three independent experiments
# [17] = Candida albicans, CGMCC2, lowest concentration killing at least 99.9% of initial inoculum, YPD agar, 48 h at 28 °C, three independent experiments
# [18] = Candida albicans, CLSI 2-fold microdilution, RPMI-1640, 28 °C for 48 h, visual, three independent experiments
# [19] = Candida albicans, lowest concentration killing at least 99.9% of initial inoculum, YPD agar, 48 h at 28 °C, three independent experiments
# [20] = CGMCC 2.1975, 48 h, read-out: MFC C. tropicalis 2.1975
# [21] = CGMCC 2.1975, 48 h, read-out: MIC C. tropicalis 2.1975
"MIC [1, 12] [µM]","MIC [2, 14] [µM]","MIC [3, 16] [µM]","MIC [4, 18] [µM]",SMILES,"MFC [1, 13] [µM]","MFC [2, 15] [µM]","MFC [3, 17] [µM]","MFC [4, 19] [µM]",MBC B. subtilis 63501 [5],MIC B. subtilis 63501 [5],MBC S. aureus 25923 [6],MBC S. aureus 29213 [7] [µM],MBC E. coli EC183 [8] [µM],MIC E. coli EC183 [8] [µM],MBC E. coli 1005 (Escherichia coli UB1005),MBC E. coli 25922 [9] [µM],MBC S. typhi C77-31 [10] [µM],MBC S. epidermidis 12228 [11],"MFC C. krusei 2.1857 ([1]; CGMCC 2.1857, 48 h) [µM]","MIC C. krusei 2.1857 ([1]; CGMCC 2.1857, 48 h) [µM]",further results
1,0.25,0.25,0.5,"C[C@@H]1[C@H](O)[C@@H](C)/C=C/C=C/C=C/C=C/C=C/C=C/C=C/[C@H](O[C@@H]2O[C@H](C)[C@@H](O)[C@H](N)[C@@H]2O)C[C@@H]2O[C@](O)(C[C@@H](O)C[C@@H](O)[C@H](O)CC[C@@H](O)C[C@@H](O)CC(=O)O[C@H]1C)C[C@H](O)[C@H]2C(=O)O [Amphotericin B, reference compound]",1,1,0.25,1,,,,,,,,,,,,,
64,0.25,2,2,"OC(Cn1cncn1)(Cn1cncn1)c1ccc(F)cc1F [Fluconazole, reference compound]",64,1,2,2,,,,,,,,,,,,,
,,,,CC[C@H](C)[C@H](NC(=O)[C@H](CCCCN)NC(=O)[C@H](CCCCN)NC(=O)[C@H](CC(C)C)NC(=O)[C@H](CCCNC(=N)N)NC(=O)[C@H](CCCCN)NC(=O)[C@H](CCCNC(=N)N)NC(=O)[C@@H](NC(=O)[C@H](CCCCN)NC(=O)[C@H](CCCCN)NC(=O)[C@H](CCCNC(=N)N)NC(=O)[C@H](CC(C)C)NC(=O)[C@H](CCCNC(=N)N)NC(=O)[C@H](CCCNC(=N)N)NC(=O)[C@H](Cc1ccccc1)NC(=O)[C@H](CCCNC(=N)N)NC(=O)CN)[C@@H](C)O)C(=O)NCC(=O)N[C@@H](CCCCN)C(=O)N[C@H](C(=O)N[C@@H](CC(C)C)C(=O)N[C@@H](CCCCN)C(=O)N[C@@H](Cc1c[nH]c2ccccc12)C(=O)N[C@H](C(=O)N1CCC[C@H]1C(=O)N1CCC[C@H]1C(=O)N[C@H](C(=O)N[C@H](C(=O)NCC(=O)N[C@@H](CO)C(=O)N[C@H](C(=O)N1CCC[C@H]1C(=O)N[C@@H](CC(C)C)C(=O)NCC(=O)N[C@@H](CS)C(=O)NCC(N)=O)[C@@H](C)CC)C(C)C)[C@@H](C)CC)[C@@H](C)CC)C(C)C [PMAP-36] (H-GRFRRLRKKTRKRLKKIGKVLKWIPPIVGSIPLGCG-NH2),,,,,1 (1) μM,1 (1) μM,4 µM,4,1,1,2 ^c (2) μM,4,2,4 µM,8,8,"MFC [2, 20]: 2 µM; MIC [2, 21]: 1 µM; MFC C. albicans 2.2086 ([3]; CGMCC 2.2086, 48 h): 128 µM; MIC C. albicans 2.2086 ([3]; CGMCC 2.2086, 48 h): 128 µM; MFC C. albicans CA276 ([4]; CA276 (clinical isolate, 48 h)): 128 µM; MIC C. albicans CA276 ([4]; CA276 (clinical isolate, 48 h)): 128 µM"
,,,,CC[C@H](C)[C@H](NC(=O)[C@H](Cc1c[nH]c2ccccc12)NC(=O)[C@H](CCCCN)NC(=O)[C@H](CC(C)C)NC(=O)[C@@H](NC(=O)[C@H](CCCCN)NC(=O)CNC(=O)[C@@H](NC(=O)[C@H](CCCCN)NC(=O)[C@H](CCCCN)NC(=O)[C@H](CC(C)C)NC(=O)[C@@H](N)CCCNC(=N)N)[C@@H](C)CC)C(C)C)C(N)=O [RI12] (H-RLKKIGKVLKWI-NH2),,,,,8 µM,2 µM,128^c (128) μM,128,4,2,32 µM,32,32,64^c (64) μM,16,16,"MFC C. tropicalis 2.1975 ([2]; CGMCC 2.1975, 48 h): 8 µM; MIC C. tropicalis 2.1975 ([2]; CGMCC 2.1975, 48 h): 8 µM; MFC C. albicans 2.2086 ([3]; CGMCC 2.2086, 48 h): 128 µM; MIC C. albicans 2.2086 ([3]; CGMCC 2.2086, 48 h): 128 µM; MFC C. albicans CA276 ([4]; CA276 (clinical isolate, 48 h)): 128 µM; MIC C. albicans CA276 ([4]; CA276 (clinical isolate, 48 h)): 128 µM"
,,,,CC[C@H](C)[C@H](NC(=O)[C@H](Cc1c[nH]c2ccccc12)NC(=O)[C@H](CCCCN)NC(=O)[C@H](CC(C)C)NC(=O)[C@@H](NC(=O)[C@H](CCCCN)NC(=O)CNC(=O)[C@@H](NC(=O)[C@H](CCCCN)NC(=O)[C@H](CCCCN)NC(=O)[C@H](CC(C)C)NC(=O)[C@H](CCCNC(=N)N)NC(=O)[C@H](CCCCN)NC(=O)[C@H](CCCNC(=N)N)NC(=O)[C@@H](NC(=O)[C@H](CCCCN)NC(=O)[C@H](CCCCN)NC(=O)[C@@H](N)CCCNC(=N)N)[C@@H](C)O)[C@@H](C)CC)C(C)C)C(N)=O [RI18] (H-RKKTRKRLKKIGKVLKWI-NH2),,,,,2 µM,1 µM,8 µM,4,2,1,4 µM,4,4,16 µM,,,"MIC S. aureus 25923 [6]: 8 µM; MIC S. aureus 29213 [7]: 4 µM; MIC E. coli 1005 (Escherichia coli UB1005): 2 µM; MIC E. coli 25922 [9]: 2 µM; MIC S. typhi C77-31 ([10]; broth microdilution, MHB, ~1 × 10^5 CFU/ml, 18 h at 37 °C, visual): 2 µM; MIC S. epidermidis 12228 [11]: 4 µM; MFC ([1]; CGMCC 2.1857, 48 h, read-out: MFC C. krusei 2.1857): 8 µM; MIC ([1]; CGMCC 2.1857, 48 h, read-out: MIC C. krusei 2.1857): 4 µM; MFC [2, 20]: 4 µM; MIC [2, 21]: 2 µM; MFC ([3]; CGMCC 2.2086, 48 h, read-out: MFC C. albicans 2.2086): 32 µM; MIC ([3]; CGMCC 2.2086, 48 h, read-out: MIC C. albicans 2.2086): 16 µM; MFC ([4]; CA276 (clinical isolate, 48 h)): 16 µM; MIC ([4]; CA276 (clinical isolate, 48 h)): 8 µM"
